From ChEMBL document CHEMBL2413072, “Synthesis and in vitro anticancer studies of novel C-2 arylidene congeners of lantadenes” (2013)

Key:
Assay type in all cases: functional
MDA-MB-231 [1] = assay: Growth inhibition of human MDA-MB-231 cells assessed as cell growth at 10^-7 M by sulforhodamine B assay; conditions: read-out: Activity
[2] = Growth inhibition of human HCC2998 cells by sulforhodamine B assay
MDA-MB-468 = assay: Growth inhibition of human MDA-MB-468 cells assessed as cell growth at 10^-8 M by sulforhodamine B assay; conditions: read-out: Activity
NCI-H226 [3] = assay: Growth inhibition of human NCI-H226 cells assessed as cell growth at 10^-6 M by sulforhodamine B assay; conditions: read-out: Activity
NCI-H23 = assay: Growth inhibition of human NCI-H23 cells assessed as cell growth at 10^-4 M by sulforhodamine B assay; conditions: read-out: Activity
SW-620 = assay: Growth inhibition of human SW620 cells assessed as cell growth at 10^-4 M by sulforhodamine B assay; conditions: read-out: Activity
SK-MEL-5 = assay: Growth inhibition of human SK-MEL-5 cells assessed as cell growth at 10^-6 M by sulforhodamine B assay; conditions: read-out: Activity
ACHN [4] = assay: Growth inhibition of human ACHN cells assessed as cell growth at 10^-8 M by sulforhodamine B assay; conditions: read-out: Activity
SF-539 [5] = assay: Growth inhibition of human SF539 cells assessed as cell growth at 10^-8 M by sulforhodamine B assay; conditions: read-out: Activity
NCI-H322M [6] = assay: Growth inhibition of human NCI-H322M cells assessed as cell growth at 10^-7 M by sulforhodamine B assay; conditions: read-out: Activity
[7] = Growth inhibition of human HCC2998 cells assessed as cell growth at 10^-6 M by sulforhodamine B assay; conditions: HCC 2998, read-out: Activity
MDA-MB-231 [8] = assay: Growth inhibition of human MDA-MB-231 cells assessed as cell growth at 10^-4 M by sulforhodamine B assay; conditions: read-out: Activity
A498 = assay: Growth inhibition of human A498 cells assessed as cell growth at 10^-7 M by sulforhodamine B assay; conditions: read-out: Activity
MCF7 = assay: Growth inhibition of human MCF7 cells assessed as cell growth at 10^-4 M by sulforhodamine B assay; conditions: read-out: Activity
RXF 393 = assay: Growth inhibition of human RXF393 cells by sulforhodamine B assay
SK-MEL-2 [9] = assay: Growth inhibition of human SK-MEL-2 cells assessed as cell growth at 10^-4 M by sulforhodamine B assay; conditions: read-out: Activity
SF-268 = assay: Growth inhibition of human SF268 cells by sulforhodamine B assay
ACHN [10] = assay: Growth inhibition of human ACHN cells by sulforhodamine B assay
COLO 205 = assay: Growth inhibition of human COLO205 cells assessed as cell growth at 10^-8 M by sulforhodamine B assay; conditions: read-out: Activity
CAKI-1 = assay: Growth inhibition of human CAKI-1 cells assessed as cell growth at 10^-7 M by sulforhodamine B assay; conditions: read-out: Activity
DU-145 = assay: Growth inhibition of human DU145 cells assessed as cell growth at 10^-4 M by sulforhodamine B assay; conditions: read-out: Activity
OVCAR-3 = assay: Growth inhibition of human OVCAR3 cells assessed as cell growth at 10^-6 M by sulforhodamine B assay; conditions: read-out: Activity
SF-539 [11] = assay: Growth inhibition of human SF539 cells by sulforhodamine B assay
SK-MEL-28 [12] = assay: Growth inhibition of human SK-MEL-28 cells assessed as cell growth at 10^-7 M by sulforhodamine B assay; conditions: read-out: Activity
NCI-H322M [13] = assay: Growth inhibition of human NCI-H322M cells assessed as cell growth at 10^-8 M by sulforhodamine B assay; conditions: read-out: Activity
SR = assay: Growth inhibition of human SR cells by sulforhodamine B assay
NCI-H226 [14] = assay: Growth inhibition of human NCI-H226 cells assessed as cell growth at 10^-7 M by sulforhodamine B assay; conditions: read-out: Activity
UO-31 = assay: Growth inhibition of human UO31 cells assessed as cell growth at 10^-6 M by sulforhodamine B assay; conditions: read-out: Activity
OVCAR-5 = assay: Growth inhibition of human OVCAR5 cells assessed as cell growth at 10^-4 M by sulforhodamine B assay; conditions: read-out: Activity
SN12C = assay: Growth inhibition of human SN12C cells by sulforhodamine B assay
SK-MEL-28 [15] = assay: Growth inhibition of human SK-MEL-28 cells by sulforhodamine B assay
A549 = assay: Growth inhibition of human A549/ATCC cells by sulforhodamine B assay
OVCAR-4 = assay: Growth inhibition of human OVCAR4 cells by sulforhodamine B assay
Malme-3M = assay: Growth inhibition of human MALME-3M cells by sulforhodamine B assay
SK-MEL-2 [16] = assay: Growth inhibition of human SK-MEL-2 cells assessed as cell growth at 10^-6 M by sulforhodamine B assay; conditions: read-out: Activity
HL-60(TB) = assay: Growth inhibition of human HL-60(TB) cells assessed as cell growth at 10^-7 M by sulforhodamine B assay; conditions: read-out: Activity
OVCAR-8 = assay: Growth inhibition of human OVCAR8 cells assessed as cell growth at 10^-6 M by sulforhodamine B assay; conditions: read-out: Activity
[17] = read-out: LC50 (the source's name)
[18] = read-out: pLC50 (the source's name) (converted)

`C/C=C(/C)C(=O)O[C@@H]1CC(C)(C)C[C@H]2C3=CC[C@@H]4[C@@]5(C)CC[C@H](O)C(C)(C)[C@@H]5CC[C@@]4(C)[C@]3(C)CC[C@@]12C(=O)O` [Reduced Lantadene A] showed a growth at 0.1 µM (MDA-MB-231 [1]) of 95%, a GI50 ([2]; HCC 2998, read-out: GI50) of 1.88 µM and a CC50 ([2]; HCC 2998, read-out: LC50 (the source's name)) of 6.43 µM. It also gave a TGI ([2]; HCC 2998, read-out: TGI) of 3.47 µM, a GI50 ([2]; HCC 2998, read-out: pGI50 (converted)) of 1.86 µM and a CC50 ([2]; HCC 2998, read-out: pLC50 (the source's name) (converted)) of 6.46 µM. The TGI ([2]; HCC 2998, read-out: pTGI (converted)) was 3.47 µM, the growth at 0.01 µM (MDA-MB-468) was 93% and the growth at 1 µM (NCI-H226 [3]) was 83%. It also gave a growth at 100 µM (NCI-H23) of -51%, a growth at 100 µM (SW-620) of -32% and a growth at 1 µM (SK-MEL-5) of 83%. It also gave a growth at 0.01 µM (ACHN [4]) of 105%, a growth at 0.01 µM (SF-539 [5]) of 100% and a growth at 0.1 µM (NCI-H322M [6]) of 98%. The growth at 1 µM [7] was 101%, the growth at 100 µM (MDA-MB-231 [8]) was -63% and the growth at 0.1 µM (A498) was 77%. The growth at 100 µM (MCF7) was -39%, the GI50 (RXF 393; read-out: GI50) was 1.77 µM and the CC50 (RXF 393; [17]) was 8.29 µM. It also gave a TGI (RXF 393; read-out: TGI) of 3.83 µM, a GI50 (RXF 393; read-out: pGI50 (converted)) of 1.78 µM and a CC50 (RXF 393; [18]) of 8.32 µM. The TGI (RXF 393; read-out: pTGI (converted)) was 3.8 µM, the growth at 100 µM (SK-MEL-2 [9]) was -71% and the GI50 (SF-268; read-out: GI50) was 2.16 µM. The TGI (SF-268; read-out: TGI) was 4.42 µM, the GI50 (SF-268; read-out: pGI50 (converted)) was 2.14 µM and the TGI (SF-268; read-out: pTGI (converted)) was 4.47 µM. For the same compound, the GI50 (ACHN [10]; read-out: GI50) was 1.82 µM, the CC50 (ACHN [10]; [17]) was 9.07 µM and the TGI (ACHN [10]; read-out: TGI) was 4.06 µM. For the same compound, the GI50 (ACHN [10]; read-out: pGI50 (converted)) was 1.82 µM, the CC50 (ACHN [10]; [18]) was 9.12 µM and the TGI (ACHN [10]; read-out: pTGI (converted)) was 4.07 µM. For the same compound, the growth at 0.01 µM (COLO 205) was 107%, the growth at 0.1 µM (CAKI-1) was 96% and the growth at 100 µM (DU-145) was -46%. The growth at 1 µM (OVCAR-3) was 104%, the GI50 (SF-539 [11]; read-out: GI50) was 3.37 µM and the CC50 (SF-539 [11]; [17]) was 56.3 µM. It also gave a TGI (SF-539 [11]; read-out: TGI) of 11.4 µM, a GI50 (SF-539 [11]; read-out: pGI50 (converted)) of 3.39 µM and a CC50 (SF-539 [11]; [18]) of 56.2 µM. For the same compound, the TGI (SF-539 [11]; read-out: pTGI (converted)) was 11.5 µM, the growth at 0.1 µM (SK-MEL-28 [12]) was 88% and the growth at 0.01 µM (NCI-H322M [13]) was 102%. It also gave a GI50 (SR; read-out: GI50) of 2.14 µM, a CC50 (SR; [17]) greater than 100 µM and a TGI (SR; read-out: TGI) of 5.63 µM. For the same compound, the GI50 (SR; read-out: pGI50 (converted)) was 2.14 µM, the CC50 (SR; [18]) was greater than 100 µM and the TGI (SR; read-out: pTGI (converted)) was 5.62 µM. The growth at 0.1 µM (NCI-H226 [14]) was 94%, the growth at 1 µM (UO-31) was 89% and the growth at 100 µM (OVCAR-5) was -73%. The GI50 (SN12C; read-out: GI50) was 1.63 µM, the CC50 (SN12C; [17]) was 7.22 µM and the TGI (SN12C; read-out: TGI) was 3.43 µM. The GI50 (SN12C; read-out: pGI50 (converted)) was 1.62 µM, the CC50 (SN12C; [18]) was 7.24 µM and the TGI (SN12C; read-out: pTGI (converted)) was 3.47 µM. For the same compound, the GI50 (SK-MEL-28 [15]; read-out: GI50) was 1.9 µM, the TGI (SK-MEL-28 [15]; read-out: TGI) was 4.27 µM and the GI50 (SK-MEL-28 [15]; read-out: pGI50 (converted)) was 1.91 µM. For the same compound, the TGI (SK-MEL-28 [15]; read-out: pTGI (converted)) was 4.27 µM, the GI50 (A549; read-out: GI50) was 1.19 µM and the CC50 (A549; [17]) was 6.37 µM. It also gave a TGI (A549; read-out: TGI) of 2.76 µM, a GI50 (A549; read-out: pGI50 (converted)) of 1.2 µM and a CC50 (A549; [18]) of 6.31 µM. For the same compound, the TGI (A549; read-out: pTGI (converted)) was 2.75 µM, the GI50 (OVCAR-4; read-out: GI50) was 1.77 µM and the TGI (OVCAR-4; read-out: TGI) was 3.74 µM. It also gave a GI50 (OVCAR-4; read-out: pGI50 (converted)) of 1.78 µM, a TGI (OVCAR-4; read-out: pTGI (converted)) of 3.72 µM and a GI50 (Malme-3M; read-out: GI50) of 1.83 µM. The CC50 (Malme-3M; [17]) was 7.7 µM, the TGI (Malme-3M; read-out: TGI) was 3.75 µM and the GI50 (Malme-3M; read-out: pGI50 (converted)) was 1.82 µM. The CC50 (Malme-3M; [18]) was 7.76 µM, the TGI (Malme-3M; read-out: pTGI (converted)) was 3.72 µM and the growth at 1 µM (SK-MEL-2 [16]) was 109%. It also gave a growth at 0.1 µM (HL-60(TB)) of 110% and a growth at 1 µM (OVCAR-8) of 97%.
